Data: ChEMBL document CHEMBL1201862, “PubChem BioAssay data set” (2004)
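These data come from cells grown in 96-well plates and exposed to compound for 48 hours at five concentrations. At the GI50, growth is halved.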 Calls of active or inactive are those of the source. Cut-off read from the data, not from the text of the source: active = GI50 up to about 1.1 µM and inactive = higher.

What was measured:
Test in all cases: NCI-60 cell line screen, 48 h
[1] = test system: SF-268
[2] = test system: NCI-H23
[3] = test system: ACHN
[4] = test system: U-251
[5] = test system: IGROV-1
[6] = test system: COLO 205
[7] = test system: MDA-MB-435
[8] = test system: MDA-N
[9] = test system: SR
[10] = test system: SF-539
[11] = test system: SK-OV-3
[12] = test system: M14
[13] = test system: RXF 393
[14] = test system: PC-3
[15] = test system: DU-145
[16] = test system: Hs-578T
[17] = test system: HL-60
[18] = test system: RPMI-8226
[19] = test system: LOX IMVI
[20] = test system: SNB-19
[21] = test system: TK-10
[22] = test system: NCI-H522
[23] = test system: UACC-62
[24] = test system: HCC 2998
[25] = test system: HCT-116
[26] = test system: NCI/ADR-RES
[27] = test system: UO-31
[28] = test system: A498
[29] = test system: OVCAR-8
[30] = test system: BT-549
[31] = test system: NCI-H460
[32] = test system: HOP-92
[33] = test system: HOP-62
[34] = test system: CAKI-1
[35] = test system: OVCAR-3
[36] = test system: HT-29
[37] = test system: K562
[38] = test system: SK-MEL-28
[39] = test system: MDA-MB-231
[40] = test system: Malme-3M
[41] = test system: A549
[42] = test system: CCRF-CEM
[43] = test system: HCT-15
[44] = test system: SW-620
[45] = test system: OVCAR-5
[46] = test system: NCI-H226
[47] = test system: SF-295
[48] = test system: MOLT-4
[49] = test system: EKVX
[50] = test system: 786-0
[51] = test system: KM12
[52] = test system: SNB-75
[53] = test system: MCF7
[54] = test system: UACC-257
[55] = test system: SK-MEL-5
[56] = test system: OVCAR-4
[57] = test system: T47D
[58] = test system: SN12C
[59] = test system: SK-MEL-2

## Cc1c(NC(=S)Nc2ccc([N+](=O)[O-])cc2)c(=O)n(-c2ccccc2)n1C
[1]
  GI50: > 100 µM (inactive)
[2]
  GI50: > 100 µM (inactive)
[3]
  GI50: > 100 µM (inactive)
[4]
  GI50: > 100 µM (inactive)
[5]
  GI50: > 100 µM (inactive)
[6]
  GI50: > 100 µM (inactive)
[7]
  GI50: > 100 µM (inactive)
[8]
  GI50: > 100 µM (inactive)
[9]
  GI50: > 100 µM (inactive)
[10]
  GI50: > 100 µM (inactive)
[11]
  GI50: > 100 µM (inactive)
[12]
  GI50: > 100 µM (inactive)
[13]
  GI50: > 100 µM (inactive)
[14]
  GI50: > 100 µM (inactive)
[15]
  GI50: > 100 µM (inactive)
[16]
  GI50: > 100 µM (inactive)
[17]
  GI50: > 100 µM (inactive)
[18]
  GI50: 16.6 µM (inactive)
[19]
  GI50: > 100 µM (inactive)
[20]
  GI50: > 100 µM (inactive)
[21]
  GI50: > 100 µM (inactive)
[22]
  GI50: > 100 µM (inactive)
[23]
  GI50: > 100 µM (inactive)
[24]
  GI50: > 100 µM (inactive)
[25]
  GI50: > 100 µM (inactive)
[26]
  GI50: > 100 µM (inactive)
[27]
  GI50: > 100 µM (inactive)
[28]
  GI50: > 100 µM (inactive)
[29]
  GI50: > 100 µM (inactive)
[30]
  GI50: > 100 µM (inactive)
[31]
  GI50: > 100 µM (inactive)
[32]
  GI50: > 100 µM (inactive)
[33]
  GI50: > 100 µM (inactive)
[34]
  GI50: > 100 µM (inactive)
[35]
  GI50: > 100 µM (inactive)
[36]
  GI50: > 100 µM (inactive)
[37]
  GI50: 69.5 µM (inactive)
[38]
  GI50: > 100 µM (inactive)
[39]
  GI50: > 100 µM (inactive)
[40]
  GI50: > 100 µM (inactive)
[41]
  GI50: > 100 µM (inactive)
[42]
  GI50: > 100 µM (inactive)
[43]
  GI50: > 100 µM
[44]
  GI50: > 100 µM (inactive)
[45]
  GI50: > 100 µM (inactive)
[46]
  GI50: > 100 µM (inactive)
[47]
  GI50: > 100 µM (inactive)
[48]
  GI50: 10.9 µM (inactive)
[49]
  GI50: > 100 µM (inactive)
[50]
  GI50: > 100 µM (inactive)
[51]
  GI50: > 100 µM (inactive)
[52]
  GI50: > 100 µM (inactive)
[53]
  GI50: > 100 µM (inactive)
[54]
  GI50: > 100 µM (inactive)
[55]
  GI50: > 100 µM (inactive)

## Cc1oc2nc(N(C)C)n3c(C)nnc3c2c1C
[1]
  GI50: > 100 µM (inactive)
[2]
  GI50: > 100 µM (inactive)
[3]
  GI50: > 100 µM (inactive)
[4]
  GI50: > 100 µM (inactive)
[5]
  GI50: > 100 µM (inactive)
[6]
  GI50: > 100 µM (inactive)
[7]
  GI50: > 100 µM (inactive)
[56]
  GI50: > 100 µM (inactive)
[9]
  GI50: > 100 µM (inactive)
[10]
  GI50: > 100 µM (inactive)
[11]
  GI50: > 100 µM (inactive)
[12]
  GI50: > 100 µM (inactive)
[13]
  GI50: > 100 µM (inactive)
[15]
  GI50: > 100 µM (inactive)
[16]
  GI50: > 100 µM (inactive)
[57]
  GI50: > 100 µM (inactive)
[18]
  GI50: > 100 µM (inactive)
[19]
  GI50: > 100 µM (inactive)
[20]
  GI50: > 100 µM (inactive)
[21]
  GI50: > 100 µM (inactive)
[22]
  GI50: > 100 µM (inactive)
[23]
  GI50: > 100 µM (inactive)
[24]
  GI50: > 100 µM (inactive)
[25]
  GI50: > 100 µM (inactive)
[58]
  GI50: > 100 µM (inactive)
[26]
  GI50: > 100 µM (inactive)
[27]
  GI50: > 100 µM (inactive)
[28]
  GI50: > 100 µM (inactive)
[29]
  GI50: > 100 µM (inactive)
[30]
  GI50: > 100 µM (inactive)
[32]
  GI50: > 100 µM (inactive)
[34]
  GI50: > 100 µM (inactive)
[36]
  GI50: > 100 µM (inactive)
[37]
  GI50: > 100 µM (inactive)
[38]
  GI50: > 100 µM (inactive)
[39]
  GI50: > 100 µM (inactive)
[41]
  GI50: > 100 µM (inactive)
[42]
  GI50: > 100 µM (inactive)
[43]
  GI50: > 100 µM
[44]
  GI50: > 100 µM (inactive)
[45]
  GI50: > 100 µM (inactive)
[46]
  GI50: > 100 µM (inactive)
[47]
  GI50: > 100 µM (inactive)
[48]
  GI50: > 100 µM (inactive)
[49]
  GI50: > 100 µM (inactive)
[50]
  GI50: > 100 µM (inactive)
[51]
  GI50: > 100 µM (inactive)
[52]
  GI50: > 100 µM (inactive)
[53]
  GI50: > 100 µM (inactive)
[54]
  GI50: > 100 µM (inactive)
[55]
  GI50: > 100 µM (inactive)

## O=S(=O)(N/C(=N\O)Nc1ccc(Cl)cc1)c1ccc(S(=O)(=O)c2ccccc2)s1
[1]
  GI50: 23.1 µM (inactive)
[2]
  GI50: 17 µM (inactive)
[3]
  GI50: 20 µM (inactive)
[4]
  GI50: 20.8 µM (inactive)
[5]
  GI50: 15.2 µM (inactive)
[6]
  GI50: 15.7 µM (inactive)
[7]
  GI50: 17 µM (inactive)
[56]
  GI50: 14.1 µM (inactive)
[10]
  GI50: 24.5 µM (inactive)
[12]
  GI50: 18.5 µM (inactive)
[13]
  GI50: 24 µM (inactive)
[14]
  GI50: 25.9 µM (inactive)
[15]
  GI50: 19.5 µM (inactive)
[16]
  GI50: 28.6 µM (inactive)
[57]
  GI50: 15.8 µM (inactive)
[17]
  GI50: 27.4 µM (inactive)
[18]
  GI50: 13.6 µM (inactive)
[19]
  GI50: 15.5 µM (inactive)
[20]
  GI50: 33.7 µM (inactive)
[21]
  GI50: 23.8 µM (inactive)
[22]
  GI50: 16.9 µM (inactive)
[23]
  GI50: 14.9 µM (inactive)
[24]
  GI50: 14.3 µM (inactive)
[25]
  GI50: 16.7 µM (inactive)
[58]
  GI50: 17.4 µM (inactive)
[26]
  GI50: 27.5 µM (inactive)
[27]
  GI50: 19.4 µM (inactive)
[28]
  GI50: 15.5 µM (inactive)
[29]
  GI50: 24.3 µM (inactive)
[30]
  GI50: 15.4 µM (inactive)
[31]
  GI50: 14.4 µM (inactive)
[32]
  GI50: 6.92 µM (inactive)
[33]
  GI50: 26.5 µM (inactive)
[34]
  GI50: 21.4 µM (inactive)
[35]
  GI50: 18.4 µM (inactive)
[36]
  GI50: 22.3 µM (inactive)
[37]
  GI50: 16.6 µM (inactive)
[38]
  GI50: 17.7 µM (inactive)
[39]
  GI50: 22.3 µM (inactive)
[40]
  GI50: 19.4 µM (inactive)
[41]
  GI50: 28.6 µM (inactive)
[42]
  GI50: 19.1 µM (inactive)
[43]
  GI50: 28.1 µM
[44]
  GI50: 30.1 µM (inactive)
[45]
  GI50: 24.3 µM (inactive)
[59]
  GI50: 17.9 µM (inactive)
[46]
  GI50: 14.6 µM (inactive)
[47]
  GI50: 26.5 µM (inactive)
[48]
  GI50: 12.9 µM (inactive)
[49]
  GI50: 18.8 µM (inactive)
[50]
  GI50: 29.7 µM (inactive)
[51]
  GI50: 20.6 µM (inactive)
[53]
  GI50: 27 µM (inactive)
[54]
  GI50: 16 µM (inactive)
[55]
  GI50: 11.2 µM (inactive)
